Usually Ki stands for the dissociation constant of the complex between target and ligand, obtained from inhibition or displacement. A higher Ki goes with a looser hold on the target. By IC50 is commonly meant the concentration at which inhibition is half-maximal. Higher therefore signals weaker potency in that assay.

The target in series [1] is T1, γ-secretase (Homo sapiens, UniProt P49768). Put plainly: Membrane-based radioligand binding assay with [^131I]-PN67. As to conditions: for Blocking of PN67 binding to γ-secretase: Hela cell membrane, [^131I]-PN67 radioligand.
Series [2] deals with γ-secretase (Mus musculus, UniProt P49769). Put plainly: PET imaging of 4T1-Luc tumors in BALB/c mice, baseline and blocking. It counts as in vivo. As to conditions: co-injection 0.2 mg/kg to 30 mg/kg, 2h post injection.
The target of series [3] is T1, γ-secretase. Put plainly: In vitro γ-secretase activity assay. In kind it is biochemical.
Series [4] is described as follows: Ex vivo biodistribution in 4T1-Luc allograft mouse model.
[5] abbreviates: biodistribution, post injection.

With `O=C(O)CC[C@H]1CC[C@@](c2cc(F)ccc2F)(S(=O)(=O)c2ccc(Cl)cc2)CC1` [MK-0752], the “Blocking of PN67 binding to γ-secretase” value in series [1] was “effectively block PN67 binding to γ-secretase”.

Take `CCC[C@H](N[C@H]1CCc2cc(F)cc(F)c2C1)C(=O)Nc1cn(C(C)(C)CNCC(C)(C)C)cn1` [PF-03084014]: in series [1], the “Blocking of PN67 binding to γ-secretase” value is given as “effectively block PN67 binding to γ-secretase”.

Take `CC(C)(C(=O)NCC(F)(F)C(F)(F)F)C(=O)N[C@@H]1C(=O)Nc2ccccc2-c2ccccc21` [RO-4929097]: the “Blocking of PN67 binding to γ-secretase” value in series [1] was “effectively block PN67 binding to γ-secretase”.

On to `CC(C)[C@H](O)C(=O)N[C@@H](C)C(=O)N[C@@H]1C(=O)N(C)CCc2ccccc21` [compound 1, Semagacestat], for which the Ki in series [1] worked out at 13.6 nM. The “Blocking of [^124I]-PN67 PET signal in 4T1-Luc tumor” value in series [2] is “blocked in a dose-dependent manner”. Further, in series [3], the IC50 was 16.2 nM. The “Blocking of 4T1 tumor uptake of [^124I]-PN67 (biodistribution)” value in series [4] (co-administered 30mg/kg with the tracer, 2h time point) is “significant reduction of tracer uptake”.

For the compound `CC(C)[C@H](O)C(=O)N[C@@H](C)C(=O)N[C@@H]1C(=O)N(C)CCc2ccc(I)cc21` [compound 2, (S)-2-hydroxy-N-((S)-1-(((S)-8-iodo-3-methyl-2-oxo-2,3,4,5-tetrahydro-1H-benzo[d]azepin-1-yl)amino)-1-oxopropan-2-yl)-3-methylbutanamide], in series [1], affinity was put at a Ki of 4.3 nM. Also, the IC50 in series [3] amounted to 3.5 nM. In addition, in series [4] (based on ex vivo biodistribution and PET imaging), the “Half-life in mouse models” value was “about 2 hours”. Also, in series [4] (setting [5]), the “Time of maximal radioactivity in large intestine” value is 2 h, the “Time of maximal radioactivity in liver” value turned out to be 0.5 h and the “Time of maximal radioactivity in small intestine” value is given as 1 h.

The values above are taken from publication PMC8610083 (Clinical cancer research : an official journal of the …, 2021).
